{"source": "patent US20240417428A1", "about": "“POLYPEPTIDE FOR INHIBITING TRPM8 AND USE THEREOF” (ZHEJIANG UNIVERSITY, priority 2021, published 2024)", "key": {"[1]": {"target": "T1, TRPV3 (Homo sapiens, UniProt Q8NET8)", "T1 construct": "expressed in transfected cells; host or cells: HEK293T", "T1 sequence (Q8NET8 1-790)": "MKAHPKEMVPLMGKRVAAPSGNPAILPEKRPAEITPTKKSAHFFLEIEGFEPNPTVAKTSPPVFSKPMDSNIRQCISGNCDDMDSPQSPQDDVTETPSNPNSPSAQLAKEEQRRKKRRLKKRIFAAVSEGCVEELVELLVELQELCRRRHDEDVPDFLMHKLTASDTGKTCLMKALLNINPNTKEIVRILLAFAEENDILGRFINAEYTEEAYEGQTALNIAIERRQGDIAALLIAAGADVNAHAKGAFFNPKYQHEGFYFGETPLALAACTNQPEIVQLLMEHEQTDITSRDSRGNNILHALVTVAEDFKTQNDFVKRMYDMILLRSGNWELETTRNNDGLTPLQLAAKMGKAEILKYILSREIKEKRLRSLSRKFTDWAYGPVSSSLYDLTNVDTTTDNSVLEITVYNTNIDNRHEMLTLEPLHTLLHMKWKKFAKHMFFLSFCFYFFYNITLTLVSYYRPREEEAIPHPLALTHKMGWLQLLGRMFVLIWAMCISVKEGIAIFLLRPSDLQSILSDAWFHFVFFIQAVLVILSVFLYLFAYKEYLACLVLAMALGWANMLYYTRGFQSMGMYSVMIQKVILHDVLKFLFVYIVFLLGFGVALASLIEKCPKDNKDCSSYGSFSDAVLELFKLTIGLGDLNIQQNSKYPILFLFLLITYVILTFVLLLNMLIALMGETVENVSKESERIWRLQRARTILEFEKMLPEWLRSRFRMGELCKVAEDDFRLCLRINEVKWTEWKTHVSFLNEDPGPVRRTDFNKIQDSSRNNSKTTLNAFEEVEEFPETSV", "assay": "Electrophysiological recording, ligand activation of TRPV3", "type": "cell-based", "protocol": "(§1) HEK293T cells were cultured in Dulbecco's modified Eagle culture medium under a 37° C., 5% CO2 environment, 10% fetal bovine serum, penicillin (100 U/mL), and streptomycin ([…]) was needed to add into the culture medium. Transient transfection was conducted by using Lipo 2000 (Invitrogen) transfection kit and following the instruction manual.\n(§2) Electrophysiological experiment recordings were performed on the cells within 24˜48 h of transient transfections. Specifically, single channel electrophysiological recordings were performed within 8 h after transfection.\n(§3) Measurement of the cell currents was respectively performed in the whole-cell recording mode, inside-out recording mode or outside-out recording mode with a HEKA EPC10 amplifier. In the whole cell electrophysiological recordings, glass microelectrodes made of borosilicate material were fire-polished to a original electrode resistance of about 3-6 MΩ. Serial resistance was compensated by 60%. The whole cell electrophysiological recordings were performed at ±80 mV. For single channel electrophysiological recordings, glass microelectrodes were fire-polished to a higher resistance of 6-8 MΩ2. Current signal was sampled at 10 kHz and filtered at 2.9 kHz. Membrane potential of the cell membrane would be clamped at +80 mV. All electrophysiological recordings were performed at room temperature (22° C.) (the maximum variation is 1° C.). […]"}, "[2]": {"target": "T2, TRPM8 (Mus musculus, UniProt Q8R4D5)", "T2 sequence (Q8R4D5 whole entry)": "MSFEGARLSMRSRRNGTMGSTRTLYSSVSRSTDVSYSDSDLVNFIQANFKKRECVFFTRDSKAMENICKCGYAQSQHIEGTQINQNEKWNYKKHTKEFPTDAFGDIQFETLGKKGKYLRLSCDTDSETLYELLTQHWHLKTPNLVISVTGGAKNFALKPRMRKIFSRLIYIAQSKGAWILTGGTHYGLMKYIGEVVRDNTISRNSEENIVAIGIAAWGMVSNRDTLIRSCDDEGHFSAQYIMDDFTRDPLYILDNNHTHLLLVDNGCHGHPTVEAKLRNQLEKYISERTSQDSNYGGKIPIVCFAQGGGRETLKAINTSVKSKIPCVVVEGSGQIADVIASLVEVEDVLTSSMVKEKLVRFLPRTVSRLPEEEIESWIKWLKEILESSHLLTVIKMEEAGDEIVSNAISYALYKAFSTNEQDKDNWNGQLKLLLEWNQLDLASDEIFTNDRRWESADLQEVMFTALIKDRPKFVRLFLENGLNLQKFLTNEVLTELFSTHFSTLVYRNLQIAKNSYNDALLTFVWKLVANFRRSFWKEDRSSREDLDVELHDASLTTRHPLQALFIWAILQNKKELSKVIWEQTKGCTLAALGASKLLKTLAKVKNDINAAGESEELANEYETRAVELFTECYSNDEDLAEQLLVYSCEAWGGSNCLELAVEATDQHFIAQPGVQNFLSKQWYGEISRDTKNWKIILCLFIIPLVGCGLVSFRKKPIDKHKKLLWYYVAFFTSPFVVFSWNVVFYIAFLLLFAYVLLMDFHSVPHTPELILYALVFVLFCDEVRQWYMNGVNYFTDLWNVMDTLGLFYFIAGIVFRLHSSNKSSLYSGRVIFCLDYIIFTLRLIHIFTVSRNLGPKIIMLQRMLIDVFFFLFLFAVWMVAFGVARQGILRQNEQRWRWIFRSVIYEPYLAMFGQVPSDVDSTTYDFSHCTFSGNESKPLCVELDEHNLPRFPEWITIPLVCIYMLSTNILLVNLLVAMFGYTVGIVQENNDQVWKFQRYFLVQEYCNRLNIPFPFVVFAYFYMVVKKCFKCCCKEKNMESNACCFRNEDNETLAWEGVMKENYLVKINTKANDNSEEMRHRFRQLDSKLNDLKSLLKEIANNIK", "assay": "Inside-out single-channel recording of cold-activated TRPM8 (16° C.) at +80 mV", "type": "cell-based", "design": "expressed in transfected cells; host or cells: HEK293T", "conditions": "DeC-1.2 100 μM at 16° C.", "protocol": "as §1, §2\nas §3, with “mV.” for “mV. All electrophysiological recordings were performed at room temperature (22° C.) (the maximum variation is 1° C.).”\nThere were different bath and pipette solutions prepared for different ion channels current measurement. […]"}, "[3]": {"target": "T3, TRPM2 (Homo sapiens, UniProt O94759)", "T3 construct": "expressed in transfected cells; host or cells: HEK293T", "T3 sequence (O94759 whole entry)": "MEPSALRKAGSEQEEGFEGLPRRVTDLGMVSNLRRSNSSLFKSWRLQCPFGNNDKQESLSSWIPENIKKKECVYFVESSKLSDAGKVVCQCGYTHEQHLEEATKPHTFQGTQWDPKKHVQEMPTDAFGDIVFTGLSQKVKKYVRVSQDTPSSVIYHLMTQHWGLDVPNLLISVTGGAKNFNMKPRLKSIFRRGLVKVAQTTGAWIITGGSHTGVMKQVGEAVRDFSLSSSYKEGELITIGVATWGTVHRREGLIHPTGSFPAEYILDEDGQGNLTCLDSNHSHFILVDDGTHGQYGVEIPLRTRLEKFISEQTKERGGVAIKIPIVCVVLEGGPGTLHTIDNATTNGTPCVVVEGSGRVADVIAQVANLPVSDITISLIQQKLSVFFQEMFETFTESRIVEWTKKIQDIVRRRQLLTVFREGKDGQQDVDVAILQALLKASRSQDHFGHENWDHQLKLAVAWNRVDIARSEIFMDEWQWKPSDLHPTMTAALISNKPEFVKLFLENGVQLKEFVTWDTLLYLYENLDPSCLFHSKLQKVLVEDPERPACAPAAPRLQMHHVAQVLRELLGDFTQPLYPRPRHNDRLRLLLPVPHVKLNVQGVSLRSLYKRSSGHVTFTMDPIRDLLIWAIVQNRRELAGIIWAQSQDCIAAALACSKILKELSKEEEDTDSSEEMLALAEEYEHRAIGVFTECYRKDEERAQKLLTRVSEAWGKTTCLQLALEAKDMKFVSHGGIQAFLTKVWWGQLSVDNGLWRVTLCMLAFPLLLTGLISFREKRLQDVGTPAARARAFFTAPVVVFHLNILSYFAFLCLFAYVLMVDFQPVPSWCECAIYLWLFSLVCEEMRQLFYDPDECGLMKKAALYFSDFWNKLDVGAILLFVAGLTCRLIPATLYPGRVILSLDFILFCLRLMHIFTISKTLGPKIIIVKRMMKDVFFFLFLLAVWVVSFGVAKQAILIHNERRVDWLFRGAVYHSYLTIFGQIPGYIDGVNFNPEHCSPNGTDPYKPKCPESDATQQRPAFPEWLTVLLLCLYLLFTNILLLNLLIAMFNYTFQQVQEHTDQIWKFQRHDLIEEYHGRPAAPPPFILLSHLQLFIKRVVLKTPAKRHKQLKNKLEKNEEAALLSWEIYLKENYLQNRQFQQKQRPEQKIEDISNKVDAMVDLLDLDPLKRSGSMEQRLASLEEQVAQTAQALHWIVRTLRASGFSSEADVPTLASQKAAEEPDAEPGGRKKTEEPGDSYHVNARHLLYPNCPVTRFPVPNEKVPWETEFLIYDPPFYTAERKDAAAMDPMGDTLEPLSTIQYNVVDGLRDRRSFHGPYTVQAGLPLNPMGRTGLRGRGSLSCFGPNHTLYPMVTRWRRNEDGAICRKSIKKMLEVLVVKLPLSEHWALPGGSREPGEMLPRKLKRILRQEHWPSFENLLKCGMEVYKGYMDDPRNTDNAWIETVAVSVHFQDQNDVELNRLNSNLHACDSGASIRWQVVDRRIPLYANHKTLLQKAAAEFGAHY", "assay": "Electrophysiological recording, ligand activation of TRPM2", "type": "cell-based", "protocol": "as §1, §2, §3"}, "[4]": {"assay": "Mice body temperature measurement", "type": "in vivo", "conditions": "30 μg/g body weight i.v., up to 24 h", "protocol": "A digital thermometer (FT3400) was used for body temperature measurement of mice. Adult CD1 male mice were placed into an environmental room maintained at a constant temperature of 22±1° C. Mice were injected with DeC-1.2 (30 mg/kg body weight) via the tail vein to assess the effect of DeC-1.2 on body temperature. Body temperature was measured before treatment (baseline, BL) and at 5 min, 15 min, 0.5, 1, 2, 6 and 24 hours following DeC-1.2 (30 mg/kg, i.v.) administration. The test probe of the thermometer was inserted into the anus of the mouse approximately 2 cm, and the body temperature was recorded after the temperature display value was stable."}, "[5]": {"target": "T2, TRPM8", "assay": "Whole-cell electrophysiological recording, menthol-activated TRPM8 in transfected HEK293T cells", "type": "cell-based", "design": "expressed in transfected cells; host or cells: HEK293T", "conditions": "whole-cell recording, menthol activation of TRPM8; read-out: half-inhibitory concentration (IC50) inhibiting TRPM8", "protocol": "as §1, §2, §3"}}, "note": "Entries after “also recorded” stand apart in the source; their conditions may differ. Where a SMILES comes first, the peptide text is derived from it."}
{"smiles": "C[C@@H]1NC(=O)[C@H](CCCNC(=N)N)NC(=O)[C@H](CC(=O)O)NC(=O)[C@H](CCCNC(=N)N)NC(=O)[C@H](CCCNC(=N)N)NC(=O)[C@@H](N)CSSC[C@@H](C(=O)O)NC(=O)[C@H](CCCNC(=N)N)NC(=O)[C@H](CCC(N)=O)NC(=O)[C@H](CCCNC(=N)N)NC(=O)[C@H](Cc2ccc(O)cc2)NC(=O)[C@H](Cc2c[nH]cn2)NC(=O)[C@H](CCCNC(=N)N)NC1=O", "note": "[DeC-1.2, CRRDRARHYRQRC] (HELM PEPTIDE1{C.R.R.D.R.A.R.H.Y.R.Q.R.C}$PEPTIDE1,PEPTIDE1,1:R3-13:R3$$$V2.0; N-terminus and C-terminus assumed)", "values": [{"measurement": "IC50", "setting": "[1]", "value": "> 100", "unit": "µM"}, {"measurement": "inhibition of ligand activation of TRPV3", "setting": "[1]; DeC-1.2 5 μM", "value": "failed to inhibit"}, {"measurement": "effect on open probability of cold-activated TRPM8", "setting": "[2]", "value": "does not change significantly; also recorded: did not decrease the open probability"}, {"measurement": "effect on single-channel conductance of cold-activated TRPM8", "setting": "[2]", "value": "does not change significantly; also recorded: did not further reduce the single-channel conductance"}, {"measurement": "IC50", "setting": "[3]", "value": "> 100", "unit": "µM"}, {"measurement": "block of ligand activation of TRPM2", "setting": "[3]; DeC-1.2 up to 100 μM", "value": "not blocked"}, {"measurement": "effect on body temperature", "setting": "[4]", "value": "did not significantly alter body temperature"}, {"measurement": "IC50", "setting": "[5]", "value": "0.0045 ± 0.003", "unit": "µM"}]}
